Patent publication US20090018134A1, “Compounds - 945” (AstraZeneca AB, priority 2007, published 2009)

molecular target: T1, mTOR (Homo sapiens, UniProt P42345); test: In Vitro mTOR Kinase Assay (Echo), Test (a)(ii); format: biochemical; conditions: table of enzyme assay Test (a)(ii); read-out: Test (a)(ii) IC50
T1 construct: FLAG; made in house
Procedure, shortened: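 FLAG-tagged truncated mTOR (residues 1362-2549), expressed in HEK293 and purified via the FLAG tag, phosphorylated a biotinylated peptide over 2 hours at room temperature. EDTA stopped the reaction. Phospho-T389 was detected overnight by AlphaScreen using the p70 S6K T389 antibody with Protein A/streptavidin beads; IC50 reported.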

T1 sequence (P42345 1362-2549): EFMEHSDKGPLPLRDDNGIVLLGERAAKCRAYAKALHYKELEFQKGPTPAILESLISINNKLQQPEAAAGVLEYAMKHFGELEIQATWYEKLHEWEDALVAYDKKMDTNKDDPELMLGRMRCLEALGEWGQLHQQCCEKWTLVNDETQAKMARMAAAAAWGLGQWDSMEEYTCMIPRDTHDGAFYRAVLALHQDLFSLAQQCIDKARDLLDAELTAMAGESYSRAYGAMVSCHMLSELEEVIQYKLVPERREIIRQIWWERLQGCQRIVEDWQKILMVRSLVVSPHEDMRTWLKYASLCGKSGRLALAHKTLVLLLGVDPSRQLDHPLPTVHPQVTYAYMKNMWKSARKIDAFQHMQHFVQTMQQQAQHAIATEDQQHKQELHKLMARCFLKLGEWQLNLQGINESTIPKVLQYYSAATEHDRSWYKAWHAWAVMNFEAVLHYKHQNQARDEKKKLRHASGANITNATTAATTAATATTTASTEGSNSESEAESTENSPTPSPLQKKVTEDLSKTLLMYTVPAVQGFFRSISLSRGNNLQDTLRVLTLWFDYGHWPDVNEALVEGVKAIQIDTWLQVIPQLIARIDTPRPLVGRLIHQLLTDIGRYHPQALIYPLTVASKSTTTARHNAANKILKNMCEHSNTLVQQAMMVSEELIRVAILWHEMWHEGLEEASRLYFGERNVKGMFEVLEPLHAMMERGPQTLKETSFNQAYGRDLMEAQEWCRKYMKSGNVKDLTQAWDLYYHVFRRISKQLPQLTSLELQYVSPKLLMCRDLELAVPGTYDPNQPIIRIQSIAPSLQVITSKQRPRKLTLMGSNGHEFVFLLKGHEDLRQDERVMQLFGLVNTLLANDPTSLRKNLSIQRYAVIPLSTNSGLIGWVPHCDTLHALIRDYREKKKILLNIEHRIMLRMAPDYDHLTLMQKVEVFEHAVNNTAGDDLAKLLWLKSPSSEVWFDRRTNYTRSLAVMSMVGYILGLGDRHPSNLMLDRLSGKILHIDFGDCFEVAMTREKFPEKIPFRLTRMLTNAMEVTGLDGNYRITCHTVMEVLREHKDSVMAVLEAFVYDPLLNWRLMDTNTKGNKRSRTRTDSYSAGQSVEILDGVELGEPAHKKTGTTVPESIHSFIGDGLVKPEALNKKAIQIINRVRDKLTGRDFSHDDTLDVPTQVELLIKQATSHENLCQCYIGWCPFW

Going from C[C@H]1COCCN1c1cc(C2(S(=O)(=O)C3CC3)CC2)nc(-c2cnc(NC(=O)Nc3cnn(C)c3)nc2)n1 [Example 14z, 1-[5-[4-(1-cyclopropylsulfonylcyclopropyl)-6-[(3S)-3-methylmorpholin-4-yl]pyrimidin-2-yl]pyrimidin-2-yl]-3-(1-methylpyrazol-4-yl)urea] to C[C@H]1COCCN1c1cc(C2(S(=O)(=O)CCO)CC2)nc(-c2ccc(NC(=O)Nc3cnn(C)c3)cc2)n1 [Example 16d, 1-[4-[4-[1-(2-hydroxyethylsulfonyl)cyclopropyl]-6-[(3S)-3-methylmorpholin-4-yl]pyrimidin-2-yl]phenyl]-3-(1-methylpyrazol-4-yl)urea], the IC50 falls from 171 nM to 3.64 nM (47-fold).

Going from C[C@H]1COCCN1c1cc(C2(S(=O)(=O)CCO)CC2)nc(-c2ccc(NC(=O)NC3CC3)cc2)n1 [Example 15, 3-Cyclopropyl-1-[4-[4-[1-(2-hydroxyethylsulfonyl)cyclopropyl]-6-[(3S)-3-methylmorpholin-4-yl]pyrimidin-2-yl]phenyl]urea] to C[C@H]1COCCN1c1cc(C2(S(=O)(=O)CCO)CC2)nc(-c2ccc(NC(=O)NC3CCC3)cc2)n1 [Example 16a, 3-cyclobutyl-1-[4-[4-[1-(2-hydroxyethylsulfonyl)cyclopropyl]-6-[(3S)-3-methylmorpholin-4-yl]pyrimidin-2-yl]phenyl]urea], the IC50 rises from 1.54 nM to 10.1 nM (6.6-fold).

Going from CCNC(=O)Nc1ccc(-c2nc(N3CCOC[C@@H]3C)cc(C3(S(=O)(=O)CCO)CC3)n2)cc1 [Example 15a, 3-ethyl-1-[4-[4-[1-(2-hydroxyethylsulfonyl)cyclopropyl]-6-[(3S)-3-methylmorpholin-4-yl]pyrimidin-2-yl]phenyl]urea] to CCCNC(=O)Nc1ccc(-c2nc(N3CCOC[C@@H]3C)cc(C3(S(=O)(=O)CCO)CC3)n2)cc1 [Example 16e, 3-[4-[4-[1-(2-hydroxyethylsulfonyl)cyclopropyl]-6-[(3S)-3-methylmorpholin-4-yl]pyrimidin-2-yl]phenyl]-1-propylurea], the IC50 rises from 0.591 nM to 21.4 nM (36-fold).

Going from CNC(=O)Nc1ccc(-c2nc(N3CCOC[C@@H]3C)cc(C3(S(=O)(=O)CCO)CC3)n2)cc1 [Example 16, 1-[4-[4-[1-(2-Hydroxyethylsulfonyl)cyclopropyl]-6-[(3S)-3-methylmorpholin-4-yl]pyrimidin-2-yl]phenyl]-3-methylurea] to C[C@H]1COCCN1c1cc(C2(S(=O)(=O)CCO)CC2)nc(-c2ccc(NC(=O)NCCO)cc2)n1 [Example 16b, 3-(2-hydroxyethyl)-1-[4-[4-[1-(2-hydroxyethylsulfonyl)cyclopropyl]-6-[(3S)-3-methylmorpholin-4-yl]pyrimidin-2-yl]phenyl]urea], the IC50 rises from 1.42 nM to 5.77 nM (4.1-fold). The first is the more potent here.

First: C[C@H]1COCCN1c1cc(C2(S(=O)(=O)CCO)CC2)nc(-c2ccc(NC(=O)Nc3ncns3)cc2)n1 [Example 16c, 1-[4-[4-[1-(2-hydroxyethylsulfonyl)cyclopropyl]-6-[(3S)-3-methylmorpholin-4-yl]pyrimidin-2-yl]phenyl]-3-(1,2,4-thiadiazol-5-yl)urea]
Second: C[C@H]1COCCN1c1cc(C2(S(=O)(=O)CCO)CC2)nc(-c2ccc(NC(=O)NC3(CO)CC3)cc2)n1 [Example 16i, 1-[4-[4-[1-(2-hydroxyethylsulfonyl)cyclopropyl]-6-[(3S)-3-methylmorpholin-4-yl]pyrimidin-2-yl]phenyl]-3-[1-(hydroxymethyl)cyclopropyl]urea]
The IC50 of the first is 530-fold lower: 1.6 nM for the first, 845 nM for the second. The first is the more potent here.

C[C@H]1COCCN1c1cc(C2(S(=O)(=O)CCO)CC2)nc(-c2ccc(NC(=O)NCCCO)cc2)n1 [Example 16f, 1-[4-[4-[1-(2-hydroxyethylsulfonyl)cyclopropyl]-6-[(3S)-3-methylmorpholin-4-yl]pyrimidin-2-yl]phenyl]-3-(3-hydroxypropyl)urea] and C[C@H]1COCCN1c1cc(C2(S(=O)(=O)CCO)CC2)nc(-c2ccc(NC(=O)NCCC#N)cc2)n1 [Example 16g, 3-(2-cyanoethyl)-1-[4-[4-[1-(2-hydroxyethylsulfonyl)cyclopropyl]-6-[(3S)-3-methylmorpholin-4-yl]pyrimidin-2-yl]phenyl]urea] are within 1.5-fold of each other in IC50: 21.2 nM for the first, 17.6 nM for the second.

Going from C[C@H]1COCCN1c1cc(C2(S(=O)(=O)CCO)CC2)nc(-c2ccc(NC(=O)NCc3ncc[nH]3)cc2)n1 [Example 16h, 1-[4-[4-[1-(2-hydroxyethylsulfonyl)cyclopropyl]-6-[(3S)-3-methylmorpholin-4-yl]pyrimidin-2-yl]phenyl]-3-(1H-imidazol-2-ylmethyl)urea] to C[C@H]1COCCN1c1cc(C2(S(=O)(=O)c3cncc(F)c3)CC2)nc(-c2ccc(NC(=O)NCCO)cc2)n1 [Example 17, 1-[4-[4-[1-(5-Fluoropyridin-3-yl)sulfonylcyclopropyl]-6-[(3S)-3-methylmorpholin-4-yl]pyrimidin-2-yl]phenyl]-3-(2-hydroxyethyl)urea], the IC50 falls from 186 nM to 1.16 nM (160-fold).

Going from CCNC(=O)Nc1ccc(-c2nc(N3CCOC[C@@H]3C)cc(C3(S(=O)(=O)c4cncc(F)c4)CC3)n2)cc1 [Example 17a, 3-ethyl-1-[4-[4-[1-(5-fluoropyridin-3-yl)sulfonylcyclopropyl]-6-[(3S)-3-methylmorpholin-4-yl]pyrimidin-2-yl]phenyl]urea] to CNC(=O)Nc1ccc(-c2nc(N3CCOC[C@@H]3C)cc(C3(S(=O)(=O)c4cncc(F)c4)CC3)n2)cc1 [Example 17b, 1-[4-[4-[1-(5-fluoropyridin-3-yl)sulfonylcyclopropyl]-6-[(3S)-3-methylmorpholin-4-yl]pyrimidin-2-yl]phenyl]-3-methylurea], the IC50 falls from 0.942 nM to 0.584 nM (1.6-fold). The second is the more potent here.

C[C@H]1COCCN1c1cc(C2(S(=O)(=O)c3cncc(F)c3)CC2)nc(-c2ccc(NC(=O)NC3CC3)cc2)n1 [Example 17c, 3-cyclopropyl-1-[4-[4-[1-(5-fluoropyridin-3-yl)sulfonylcyclopropyl]-6-[(3S)-3-methylmorpholin-4-yl]pyrimidin-2-yl]phenyl]urea] and C[C@H]1COCCN1c1cc(C2(S(=O)(=O)C(C)(C)C)CC2)nc(-c2ccc(NC(=O)NC3CC3)cc2)n1 [Example 18, 1-[4-[4-(1-tert-Butylsulfonylcyclopropyl)-6-[(3S)-3-methylmorpholin-4-yl]pyrimidin-2-yl]phenyl]-3-cyclopropylurea] are within 1.5-fold of each other in IC50: 1.79 nM for the first, 1.35 nM for the second.

Compared with C[C@H]1COCCN1c1cc(C2(S(=O)(=O)C(C)(C)C)CC2)nc(-c2ccc(NC(=O)Nc3ccccn3)cc2)n1 [Example 18b, 1-[4-[4-(1-tert-butylsulfonylcyclopropyl)-6-[(3S)-3-methylmorpholin-4-yl]pyrimidin-2-yl]phenyl]-3-pyridin-2-ylurea], CNC(=O)Nc1ccc(-c2nc(N3CCOC[C@@H]3C)cc(C3(S(=O)(=O)C(C)(C)C)CC3)n2)cc1 [Example 18i, 1-[4-[4-(1-tert-butylsulfonylcyclopropyl)-6-[(3S)-3-methylmorpholin-4-yl]pyrimidin-2-yl]phenyl]-3-methylurea] is 2.6-fold lower in IC50: 14.7 nM for the first, 5.55 nM for the second. The second is the more potent here.

Going from CC(C)CNC(=O)Nc1ccc(-c2nc(N3CCOC[C@@H]3C)cc(C3(S(=O)(=O)C(C)(C)C)CC3)n2)cc1 [Example 18c, 1-[4-[4-(1-tert-butylsulfonylcyclopropyl)-6-[(3S)-3-methylmorpholin-4-yl]pyrimidin-2-yl]phenyl]-3-(2-methylpropyl)urea] to CC(C)NC(=O)Nc1ccc(-c2nc(N3CCOC[C@@H]3C)cc(C3(S(=O)(=O)C(C)(C)C)CC3)n2)cc1 [Example 18d, 1-[4-[4-(1-tert-butylsulfonylcyclopropyl)-6-[(3S)-3-methylmorpholin-4-yl]pyrimidin-2-yl]phenyl]-3-propan-2-ylurea], the IC50 falls from 32 nM to 15.1 nM (2.1-fold). The second is the more potent here.

Compared with CCNC(=O)Nc1ccc(-c2nc(N3CCOC[C@@H]3C)cc(C3(S(=O)(=O)C(C)(C)C)CC3)n2)cc1 [Example 18e, 1-[4-[4-(1-tert-butylsulfonylcyclopropyl)-6-[(3S)-3-methylmorpholin-4-yl]pyrimidin-2-yl]phenyl]-3-ethylurea], CCCNC(=O)Nc1ccc(-c2nc(N3CCOC[C@@H]3C)cc(C3(S(=O)(=O)C(C)(C)C)CC3)n2)cc1 [Example 18h, 1-[4-[4-(1-tert-butylsulfonylcyclopropyl)-6-[(3S)-3-methylmorpholin-4-yl]pyrimidin-2-yl]phenyl]-3-propylurea] is 10-fold higher in IC50: 0.654 nM for the first, 6.64 nM for the second. The first is the more potent here.

Compared with C[C@H]1COCCN1c1cc(C2(S(=O)(=O)C(C)(C)C)CC2)nc(-c2ccc(NC(=O)NCCN(C)C)cc2)n1 [Example 18f, 1-[4-[4-(1-tert-butylsulfonylcyclopropyl)-6-[(3S)-3-methylmorpholin-4-yl]pyrimidin-2-yl]phenyl]-3-(2-dimethylaminoethyl)urea], C[C@H]1COCCN1c1cc(C2(S(=O)(=O)C(C)(C)C)CC2)nc(-c2ccc(NC(=O)NCCO)cc2)n1 [Example 18g, 1-[4-[4-(1-tert-butylsulfonylcyclopropyl)-6-[(3S)-3-methylmorpholin-4-yl]pyrimidin-2-yl]phenyl]-3-(2-hydroxyethyl)urea] is 98-fold lower in IC50: 120 nM for the first, 1.23 nM for the second.

Going from C[C@H]1COCCN1c1cc(C2(S(=O)(=O)C(C)(C)C)CC2)nc(-c2ccc(NC(=O)Nc3ccc(C(F)(F)F)cc3)cc2)n1 [Example 18j, 1-[4-[4-(1-tert-butylsulfonylcyclopropyl)-6-[(3S)-3-methylmorpholin-4-yl]pyrimidin-2-yl]phenyl]-3-[4-(trifluoromethyl)phenyl]urea] to C[C@H]1COCCN1c1cc(C2(S(=O)(=O)C(C)(C)C)CC2)nc(-c2ccc(NC(=O)NC(C)(C)CO)cc2)n1 [Example 18k, 1-[4-[4-(1-tert-butylsulfonylcyclopropyl)-6-[(3S)-3-methylmorpholin-4-yl]pyrimidin-2-yl]phenyl]-3-(1-hydroxy-2-methylpropan-2-yl)urea], the IC50 falls from 30.3 nM to 11.3 nM (2.7-fold). The second is the more potent here.

In the case of C[C@H]1COCCN1c1cc(C2(S(=O)(=O)C(C)(C)C)CC2)nc(-c2ccc(NC(=O)NCCCO)cc2)n1 [Example 18l, 1-[4-[4-(1-tert-butylsulfonylcyclopropyl)-6-[(3S)-3-methylmorpholin-4-yl]pyrimidin-2-yl]phenyl]-3-(3-hydroxypropyl)urea], the IC50 is reported as 10.2 nM.
